Data as given in ChEMBL document CHEMBL5321294, “Evolution of Slow-Binding Inhibitors Targeting Histone Deacetylase Isoforms” (J Med Chem, 2023).
Blank lines part the entries; values can stand above or below the molecule they belong to. Non-standard residues stand in square brackets, D forms with d. Residues, ends and D or L forms follow the SMILES beside them. *: point of attachment. Asu = N[C@@H](CCCCCC(=O)O)C(=O)O; NHOH = ON*

Key:
[1] = target: T1, Histone deacetylase 2 (Homo sapiens, UniProt Q92769)
T1 sequence (Q92769 whole entry): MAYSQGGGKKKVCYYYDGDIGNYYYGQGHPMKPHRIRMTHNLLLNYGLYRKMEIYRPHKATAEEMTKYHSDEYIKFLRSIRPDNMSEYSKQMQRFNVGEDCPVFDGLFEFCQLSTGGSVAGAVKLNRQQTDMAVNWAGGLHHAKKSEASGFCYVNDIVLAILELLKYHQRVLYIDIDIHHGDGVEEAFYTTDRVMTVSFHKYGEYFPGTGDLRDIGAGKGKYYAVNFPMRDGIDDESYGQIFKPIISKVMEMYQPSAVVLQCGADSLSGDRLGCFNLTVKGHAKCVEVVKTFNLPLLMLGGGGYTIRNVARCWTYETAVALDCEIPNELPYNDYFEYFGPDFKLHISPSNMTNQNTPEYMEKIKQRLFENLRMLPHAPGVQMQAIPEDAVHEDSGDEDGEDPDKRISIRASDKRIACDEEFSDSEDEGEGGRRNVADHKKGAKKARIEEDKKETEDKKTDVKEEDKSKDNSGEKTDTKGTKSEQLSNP

[2] = target: T2, Histone deacetylase 3 (Homo sapiens, UniProt O15379)
T2 sequence (O15379 whole entry): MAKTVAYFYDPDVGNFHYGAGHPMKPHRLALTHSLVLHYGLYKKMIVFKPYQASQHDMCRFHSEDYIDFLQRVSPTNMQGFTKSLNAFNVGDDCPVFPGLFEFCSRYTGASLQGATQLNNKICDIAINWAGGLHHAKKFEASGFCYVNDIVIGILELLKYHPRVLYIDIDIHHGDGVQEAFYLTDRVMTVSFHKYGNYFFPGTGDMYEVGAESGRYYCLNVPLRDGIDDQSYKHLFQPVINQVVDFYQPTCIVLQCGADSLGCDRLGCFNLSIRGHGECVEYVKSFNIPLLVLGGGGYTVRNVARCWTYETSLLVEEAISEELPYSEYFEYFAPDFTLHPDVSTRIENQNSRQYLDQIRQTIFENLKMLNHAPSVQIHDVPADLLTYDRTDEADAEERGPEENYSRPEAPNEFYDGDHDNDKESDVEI

[3] = Half life in C57BL/6 mouse brain at 45 mg/kg, ip; format: ADME, organism-based
[4] = target: T3, Protein deacetylase HDAC6 (Homo sapiens) (UniProt Q9UBN7); assay: Binding affinity to recombinant human HDAC6 using Ac-Leu-Gly-Lys(Ac)-AMC as substrate measured after 60 mins assessed as binding constant (k2) by fluorescence based assay
T3 sequence (whole entry): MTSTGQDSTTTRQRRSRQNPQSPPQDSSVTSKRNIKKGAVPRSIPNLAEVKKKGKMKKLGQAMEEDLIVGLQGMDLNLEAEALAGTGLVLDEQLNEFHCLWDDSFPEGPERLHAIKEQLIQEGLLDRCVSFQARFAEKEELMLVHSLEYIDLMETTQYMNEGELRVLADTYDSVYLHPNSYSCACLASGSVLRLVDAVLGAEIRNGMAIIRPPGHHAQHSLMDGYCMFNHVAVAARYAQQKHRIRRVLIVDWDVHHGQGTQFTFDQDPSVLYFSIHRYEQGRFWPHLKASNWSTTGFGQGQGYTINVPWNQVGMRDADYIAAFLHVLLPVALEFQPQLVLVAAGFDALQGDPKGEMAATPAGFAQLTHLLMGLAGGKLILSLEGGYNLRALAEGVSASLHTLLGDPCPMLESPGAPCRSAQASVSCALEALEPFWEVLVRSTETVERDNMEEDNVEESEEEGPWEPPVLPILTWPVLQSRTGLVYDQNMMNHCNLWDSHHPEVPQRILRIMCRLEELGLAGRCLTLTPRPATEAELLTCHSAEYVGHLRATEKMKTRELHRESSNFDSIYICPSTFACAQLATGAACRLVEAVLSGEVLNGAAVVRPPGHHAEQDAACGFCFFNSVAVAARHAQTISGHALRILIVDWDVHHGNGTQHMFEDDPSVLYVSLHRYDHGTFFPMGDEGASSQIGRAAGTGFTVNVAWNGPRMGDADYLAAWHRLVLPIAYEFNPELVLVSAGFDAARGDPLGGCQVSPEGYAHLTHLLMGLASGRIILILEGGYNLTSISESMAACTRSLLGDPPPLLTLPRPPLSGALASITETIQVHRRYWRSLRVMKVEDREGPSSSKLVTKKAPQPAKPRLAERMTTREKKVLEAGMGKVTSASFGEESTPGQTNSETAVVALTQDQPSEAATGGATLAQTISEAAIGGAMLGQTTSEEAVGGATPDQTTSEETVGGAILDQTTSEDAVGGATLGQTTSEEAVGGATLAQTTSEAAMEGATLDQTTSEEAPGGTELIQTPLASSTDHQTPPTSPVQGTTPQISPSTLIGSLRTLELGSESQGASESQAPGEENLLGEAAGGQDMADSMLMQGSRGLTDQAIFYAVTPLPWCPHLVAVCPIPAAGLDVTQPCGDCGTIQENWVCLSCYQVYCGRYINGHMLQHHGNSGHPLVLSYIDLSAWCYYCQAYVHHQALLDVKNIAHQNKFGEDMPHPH

[5] = target: T4, Protein deacetylase HDAC6 (Homo sapiens, UniProt Q9UBN7); assay: Binding affinity to recombinant human HDAC6 using Ac-Leu-Gly-Lys(Ac)-AMC as substrate measured after 60 mins assessed as inhibition constant by fluorescence based assay
T4 sequence (Q9UBN7 whole entry): T3 sequence (whole entry)

[6] = target: T4, Protein deacetylase HDAC6; assay: Binding affinity to recombinant human HDAC6 using Ac-Leu-Gly-Lys(Ac)-AMC as substrate measured after 60 mins assessed as inhibition constant (ki,1) by fluorescence based assay
[7] = target: T3, Protein deacetylase HDAC6 (Homo sapiens); assay: Binding affinity to recombinant human HDAC6 using Ac-Leu-Gly-Lys(Ac)-AMC as substrate assessed as residence time
[8] = target: T2, Histone deacetylase 3; assay: Binding affinity to HDAC3 (unknown origin) assessed as binding constant(k-2)
[9] = target: T2, Histone deacetylase 3; assay: Binding affinity to HDAC3 (unknown origin) assessed as residence time
[10] = target: T3, Protein deacetylase HDAC6 (Homo sapiens); assay: Binding affinity to recombinant human HDAC6 using Ac-Leu-Gly-Lys(Ac)-AMC as substrate measured after 60 mins assessed as binding constant (k-2) by fluorescence based assay
[11] = target: T2, Histone deacetylase 3; assay: Binding affinity to HDAC3 (unknown origin) assessed as inhibition constant
[12] = target: T2, Histone deacetylase 3; assay: Binding affinity to HDAC3 (unknown origin) assessed as inhibition constant(ki,1)
[13] = target: T2, Histone deacetylase 3; assay: Binding affinity to HDAC3 (unknown origin) assessed as binding constant(k2)
[14] = target: T2, Histone deacetylase 3; assay: Inhibition of HDAC3 (unknown origin) measured after 1 hrs by fluorescence based assay
[15] = target: T5, Histone deacetylase 1 (Homo sapiens, UniProt Q13547); assay: Inhibition of HDAC1 (unknown origin) measured after 1 hrs by fluorescence based assay
T5 sequence (Q13547 whole entry): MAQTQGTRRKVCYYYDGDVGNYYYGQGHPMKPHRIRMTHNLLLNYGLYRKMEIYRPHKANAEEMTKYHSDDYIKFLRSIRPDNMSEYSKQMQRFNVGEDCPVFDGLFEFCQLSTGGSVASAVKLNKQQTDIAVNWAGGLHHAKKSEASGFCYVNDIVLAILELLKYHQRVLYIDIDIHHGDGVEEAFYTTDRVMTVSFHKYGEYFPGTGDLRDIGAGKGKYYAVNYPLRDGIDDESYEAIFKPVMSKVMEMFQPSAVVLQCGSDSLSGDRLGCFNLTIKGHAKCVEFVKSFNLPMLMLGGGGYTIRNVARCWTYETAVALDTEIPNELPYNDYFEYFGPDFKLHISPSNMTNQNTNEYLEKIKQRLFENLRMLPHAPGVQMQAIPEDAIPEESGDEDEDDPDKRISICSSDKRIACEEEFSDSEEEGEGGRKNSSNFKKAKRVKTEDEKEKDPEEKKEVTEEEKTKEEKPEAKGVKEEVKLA

[16] = target: T1, Histone deacetylase 2; assay: Inhibition of HDAC2 (unknown origin) measured after 1 hrs by fluorescence based assay
[17] = target: T2, Histone deacetylase 3; assay: Inhibition of HDAC3 (unknown origin) measured after 24 hrs by fluorescence based assay
[18] = in vivo; details: C57BL/6, mouse, brain, ip, 25 mg/kg
[19] = target: T5, Histone deacetylase 1
[20] = target: T3, Protein deacetylase HDAC6 (Homo sapiens); assay: Binding affinity to N-terminal GST-tagged human full length HDAC6 expressed in baculovirus infected Sf9 cells using Fluor-de-Lys Green as substrate assessed as dissociation constant (koff) by jump dilution assay
[21] = target: T4, Protein deacetylase HDAC6; assay: Inhibition of N-terminal GST-tagged human full length HDAC6 expressed in baculovirus infected Sf9 cells using Fluor-de-Lys Green as substrate
[22] = target: T3, Protein deacetylase HDAC6 (Homo sapiens); assay: Binding affinity to N-terminal GST-tagged human full length HDAC6 expressed in baculovirus infected Sf9 cells using Fluor-de-Lys Green as substrate assessed as association constant (kon)
[23] = target: T4, Protein deacetylase HDAC6; assay: Binding affinity to N-terminal GST-tagged human full length HDAC6 expressed in baculovirus infected Sf9 cells using Fluor-de-Lys Green as substrate assessed as inhibition constant
[24] = target: T3, Protein deacetylase HDAC6 (Homo sapiens); assay: Binding affinity to N-terminal GST-tagged human full length HDAC6 expressed in baculovirus infected Sf9 cells using Fluor-de-Lys Green as substrate assessed as residence time
[25] = target: T3, Protein deacetylase HDAC6 (Homo sapiens); assay: Binding affinity to N-terminal GST-tagged human full length HDAC6 expressed in baculovirus infected Sf9 cells using Fluor-de-Lys Green as substrate assessed as residence time by jump dilution assay
[26] = target: T3, Protein deacetylase HDAC6 (Homo sapiens); assay: Binding affinity to N-terminal GST-tagged human full length HDAC6 expressed in baculovirus infected Sf9 cells using Fluor-de-Lys Green as substrate assessed as dissociation constant (koff)
[27] = target: T5, Histone deacetylase 1; assay: Binding affinity to human HDAC1 using AcLGK (Ac) -AMC as substrate assessed as residence time
[28] = target: T5, Histone deacetylase 1; assay: Binding affinity to human HDAC1 assessed as half life
[29] = target: T2, Histone deacetylase 3; assay: Binding affinity to human HDAC3 assessed as residence time
[30] = target: T1, Histone deacetylase 2; assay: Binding affinity to human HDAC2 assessed as half life
[31] = target: T2, Histone deacetylase 3; assay: Binding affinity to human HDAC3 assessed as binding rate constant (Kon)
[32] = species on record: Homo sapiens; assay: Selectivity index, ratio of IC50 for Inhibition of human HDAC3 to Inhibition of human IC50 for HDAC2
[33] = species on record: Homo sapiens; assay: Selectivity index, ratio of IC50 for Inhibition of human HDAC3 to IC50 for Inhibition of human HDAC1
[34] = target: T2, Histone deacetylase 3; assay: Binding affinity to human HDAC3 assessed as half life
[35] = target: T2, Histone deacetylase 3; assay: Binding affinity to human HDAC3 assessed as dissociation rate constant (Koff)
[36] = target: T1, Histone deacetylase 2; assay: Binding affinity to human HDAC2 assessed as residence time
[37] = target: T5, Histone deacetylase 1; remark: listed apart in the source
[38] = target: T2, Histone deacetylase 3; remark: listed apart in the source
Description: Binding affinity to HDAC3 (unknown origin) using Ac-LGKac-AMC as substrate assessed as half life

[39] = target: T5, Histone deacetylase 1; remark: listed apart in the source
[40] = target: T5, Histone deacetylase 1; remark: listed apart in the source
Description: Binding affinity to HDAC1 (unknown origin) using Ac-LGKac-AMC as substrate assessed as half life

- T1/2 [1]: > 80 h
- T1/2 [2]: 20 h
- half-life [3]: 6.44 h
Compound: CC(=O)Nc1ccc(C(=O)Nc2cc(-c3cccs3)ccc2N)cc1

- K [4]: 0.148 min⁻¹
- Ki [5]: ~1.2 nM
- Ki [6]: 34 nM
- TIME [7]: 2.92 h
- K [8]: 0.004 min⁻¹
- TIME [9]: 4.17 h
- K [10]: 0.006 min⁻¹
- Ki [11]: 0.2 nM
- Ki [12]: 1.4 nM
- K [13]: 0.26 min⁻¹
Compound: O=C(CCCCC[C@@H]1NC(=O)[C@H]2CCCN2C(=O)[C@H](Cc2ccccc2)NC(=O)[C@H](Cc2ccccc2)NC1=O)NO (cyclo([Asu](NHOH)FF[dP]))

Compound: O=C(/C=C(\CO)c1ccccc1)c1ccccc1
- IC50 [14]: ~50000 nM
- IC50 [15]: 3680 nM
- IC50 [16]: 9190 nM
- IC50 [17]: ~50000 nM

- half-life [18]: 0.44 h
- T1/2 [2]: < 0.0667 h
- T1/2 [19]: < 4 min
Compound: O=C(CCCCCCC(=O)Nc1ccccc1)NO [VORINOSTAT]

- K [20]: 3.3 10^-3/min
- IC50 [21]: 7.7 nM
- K [22]: 9.6 10^5/min/M
- Ki [23]: 4.8 nM
- TIME [24]: 3.6 h
- TIME [25]: 5.1 h
- K [26]: 4.6 10^-3/min
Compound: FC(F)c1nnc(-c2ccc(Cn3cc(-c4ccc(NC5N=CCN5)cc4)nn3)cc2)o1 (centres undefined)

- TIME [27]: 2.42 h
Compound: Nc1ccc(-c2ccco2)cc1NC(=O)c1ccc(-c2cn(CS(=O)(=O)c3ccccc3)nn2)cc1

- T1/2 [28]: 7.17 h
- TIME [29]: 10.4 h
- T1/2 [30]: 30 h
- K [31]: 16.7 M⁻¹ s⁻¹
- Ratio IC50 [32]: 100
- Ratio IC50 [33]: 1040
- T1/2 [34]: 11.5 h
- K [35]: 0.002 min⁻¹
- TIME [36]: 41.7 h
Compound: CC(=O)Nc1ccc(C(=O)Nc2cc(-c3ccncc3)ccc2N)cc1

Compound: C[C@@H]1NC(=O)[C@H]2CCCN2C(=O)[C@H](CCCCCC(=O)[C@@H]2CO2)NC(=O)[C@@H](C)NC1=O
- K [8]: 0.012 min⁻¹
- TIME [9]: 1.39 h
- K [13]: 0.12 min⁻¹

- Ki [37]: 0.88 nM
- T1/2 [38]: > 1670 h
- Ki [39]: ~0.02 nM
- T1/2 [40]: > 0.433 h
Compound: C/C=C1\NC(=O)[C@H]2CSSCC/C=C/[C@H](CC(=O)N[C@H](C(C)C)C(=O)N2)OC(=O)[C@H](C(C)C)NC1=O [ROMIDEPSIN]
